Laboratory results: patent US9255295B2, “Method for evaluating the sensitizing potential of a test compound” (IMMUNOSEARCH, priority 2010, dated 2016)
Like-named read-outs stand apart in the source and are kept apart here.

Key:
[1] = test system: ARE gene family (AKR1B10, AKR1C1, AKR1C2, CYP1B1, FTH1P, FTL, G6PD, GCLM, NQO2, SLC7A11, TXNRD1, UGT1A1, UGT1A9, YWHAZ, CD36, CYP1A1, GCLC, HMOX1, NQO1, PSME2 …); details: for AHR expression / AKR1B10 expression / AKR1C1 expression / AKR1C2 expression / CYP1A1 expression / CYP1B1 expression / FTH1P expression / FTL expression / GCLC expression / GCLM expression / HMOX1 expression / NQO1 expression / NQO2 expression / SLC7A11 expression / TXNRD1 expression / UGT1A1 expression / UGT1A9 expression: compared to the control
EPISKIN model = assay: Sensitizing power: sensitizing potential retested at successive dilutions in the EPISKIN model
Excerpt: “Sensitizing power” means the ability of a given compound to induce a sensitization reaction according to the concentration of said compound. Sensitizing power is dependent on the quantity of substance necessary to induce sensitization. Thus, the lower the sensitizing quantity necessary to induce a sensitizing response, the stronger the sensitizer is, and vice versa, the higher the sensitizing quantity necessary to induce a sensitizing response, the weaker the sensitizer is.
Thus, steps 1) and 2) will be done for each of the dilutions.

SMILES: CC=Cc1ccc(O)c(OC)c1 [Isoeugenol]
- AKR1C1 NUMBER OF GENES grade ([1]; 10%): 0 (if this expression is lower, the grade is 0)
- AKR1C2 NUMBER OF GENES grade ([1]; 10%): 0 (if this expression is lower, the grade is 0)
- ARE >1.3 (number of genes) ([1]; 10%): 5
- CD36 expression compared to control ([1]; 10%): 0.6
- CD36 grade (NUMBER OF GENES) ([1]; 10%): 0 (if this expression is lower, the grade is 0)
- CYP1A1 NUMBER OF GENES grade ([1]; 10%): 1 (If the expression is greater than 1.3 compared to the control, a grade of 11s given)
- CYP1B1 NUMBER OF GENES grade ([1]; 10%): 1 (If the expression is greater than 1.3 compared to the control, a grade of 11s given)
- FTH1P NUMBER OF GENES grade ([1]; 10%): 0 (if this expression is lower, the grade is 0)
- FTL NUMBER OF GENES grade ([1]; 10%): 0 (if this expression is lower, the grade is 0)
- GCLC NUMBER OF GENES grade ([1]; 10%): 0 (if this expression is lower, the grade is 0)
- GCLM NUMBER OF GENES grade ([1]; 10%): 1 (If the expression is greater than 1.3 compared to the control, a grade of 11s given)
- HMOX1 NUMBER OF GENES grade ([1]; 10%): 0 (if this expression is lower, the grade is 0)
- NQO1 NUMBER OF GENES grade ([1]; 10%): 0 (if this expression is lower, the grade is 0)
- NQO2 NUMBER OF GENES grade ([1]; 10%): 0 (if this expression is lower, the grade is 0)
- S100A8 expression compared to control ([1]; 10%): 1.3
- S100A8 grade (NUMBER OF GENES) ([1]; 10%): 1 (If the expression is greater than 1.3 compared to the control, a grade of 11s given)
- SLC7A11 NUMBER OF GENES grade ([1]; 10%): 0 (if this expression is lower, the grade is 0)
- TOTAL ARE (number of genes) ([1]; 10%): 5
- TXNRD1 NUMBER OF GENES grade ([1]; 10%): 1 (If the expression is greater than 1.3 compared to the control, a grade of 11s given)
- UGT1A1 NUMBER OF GENES grade ([1]; 10%): 0 (if this expression is lower, the grade is 0)
- UGT1A9 NUMBER OF GENES grade ([1]; 10%): 1 (If the expression is greater than 1.3 compared to the control, a grade of 11s given)
- AHR expression ([1]; 10%): 0.9
- AKR1B10 expression ([1]; 10%): 0.5
- AKR1C1 expression ([1]; 10%): 1.1
- AKR1C2 expression ([1]; 10%): 0.7
- CYP1A1 expression ([1]; 10%): 510.5
- CYP1B1 expression ([1]; 10%): 39.8
- FTH1P expression ([1]; 10%): 0.9
- FTL expression ([1]; 10%): 0.9
- GCLC expression ([1]; 10%): 0.8
- GCLM expression ([1]; 10%): 1.5
- HMOX1 expression ([1]; 10%): 1.2
- NQO1 expression ([1]; 10%): 1.0
- NQO2 expression ([1]; 10%): 0.9
- SLC7A11 expression ([1]; 10%): 1.1
- TXNRD1 expression ([1]; 10%): 1.5
- UGT1A1 expression ([1]; 10%): 1.2
- UGT1A9 expression ([1]; 10%): 1.6
- AHR NUMBER OF GENES grade ([1]; 50%): 0 (if this expression is lower, the grade is 0)
- AKR1B10 NUMBER OF GENES grade ([1]; 50%): 0 (if this expression is lower, the grade is 0)
- AKR1C1 NUMBER OF GENES grade ([1]; 50%): 1 (If the expression is greater than 1.3 compared to the control, a grade of 11s given)
- AKR1C2 NUMBER OF GENES grade ([1]; 50%): 1 (If the expression is greater than 1.3 compared to the control, a grade of 11s given)
- ARE >1.3 (number of genes) ([1]; 50%): 11
- CD36 expression compared to control ([1]; 50%): 0.6
- CD36 grade (NUMBER OF GENES) ([1]; 50%): 0 (if this expression is lower, the grade is 0)
- CYP1A1 NUMBER OF GENES grade ([1]; 50%): 1 (If the expression is greater than 1.3 compared to the control, a grade of 11s given)
- CYP1B1 NUMBER OF GENES grade ([1]; 50%): 1 (If the expression is greater than 1.3 compared to the control, a grade of 11s given)
- FTH1P NUMBER OF GENES grade ([1]; 50%): 0 (if this expression is lower, the grade is 0)
- FTL NUMBER OF GENES grade ([1]; 50%): 1 (If the expression is greater than 1.3 compared to the control, a grade of 11s given)
- GCLC NUMBER OF GENES grade ([1]; 50%): 1 (If the expression is greater than 1.3 compared to the control, a grade of 11s given)
- GCLM NUMBER OF GENES grade ([1]; 50%): 1 (If the expression is greater than 1.3 compared to the control, a grade of 11s given)
- HMOX1 NUMBER OF GENES grade ([1]; 50%): 1 (If the expression is greater than 1.3 compared to the control, a grade of 11s given)
- NQO1 NUMBER OF GENES grade ([1]; 50%): 1 (If the expression is greater than 1.3 compared to the control, a grade of 11s given)
- NQO2 NUMBER OF GENES grade ([1]; 50%): 0 (if this expression is lower, the grade is 0)
- S100A8 expression compared to control ([1]; 50%): 1.5
- S100A8 grade (NUMBER OF GENES) ([1]; 50%): 1 (If the expression is greater than 1.3 compared to the control, a grade of 11s given)
- SLC7A11 NUMBER OF GENES grade ([1]; 50%): 1 (If the expression is greater than 1.3 compared to the control, a grade of 11s given)
- TOTAL ARE (number of genes) ([1]; 50%): 11
- TXNRD1 NUMBER OF GENES grade ([1]; 50%): 1 (If the expression is greater than 1.3 compared to the control, a grade of 11s given)
- UGT1A1 NUMBER OF GENES grade ([1]; 50%): 0 (if this expression is lower, the grade is 0)
- UGT1A9 NUMBER OF GENES grade ([1]; 50%): 0 (if this expression is lower, the grade is 0)
- AHR expression ([1]; 50%): 1.0
- AKR1B10 expression ([1]; 50%): 1.0
- AKR1C1 expression ([1]; 50%): 2.2
- AKR1C2 expression ([1]; 50%): 1.3
- CYP1A1 expression ([1]; 50%): 87.1
- CYP1B1 expression ([1]; 50%): 39.1
- FTH1P expression ([1]; 50%): 1.0
- FTL expression ([1]; 50%): 1.5
- GCLC expression ([1]; 50%): 1.3
- GCLM expression ([1]; 50%): 2.0
- HMOX1 expression ([1]; 50%): 1.4
- NQO1 expression ([1]; 50%): 1.8
- NQO2 expression ([1]; 50%): 1.1
- SLC7A11 expression ([1]; 50%): 2.2
- TXNRD1 expression ([1]; 50%): 2.6
- UGT1A1 expression ([1]; 50%): 1.2
- UGT1A9 expression ([1]; 50%): 1.2
- sensitizing potential (conclusion) (EPISKIN model; 0.1%): Sensitizing
- sensitizing potential (conclusion) (EPISKIN model; 1%): Sensitizing
- sensitizing potential (conclusion) (EPISKIN model; 10%): Sensitizing
- sensitizing potential (conclusion) (EPISKIN model; 50%): Sensitizing
- sensitizing power (class) (EPISKIN model; from successive dilutions): MODERATE
